According to patent US20230278998A1, “Compound containing structure of a five-membered heteroaromatic ring, pharmaceutical compositions thereof and applications thereof” (280 Bio, Inc., priority 2022, published 2023):

target: PARG (389-976) (Homo sapiens (Human), UniProt Q86W56); assay: PARG enzyme inhibition assay (TR-FRET); format: biochemical; conditions: Table 3, class symbol
Description: PARG Enzyme Inhibition Assay
PARG in vitro assays were conducted in standard 384-well plates in a total volume of 15 μL.

PARG (389-976), sequence (Q86W56 389-976): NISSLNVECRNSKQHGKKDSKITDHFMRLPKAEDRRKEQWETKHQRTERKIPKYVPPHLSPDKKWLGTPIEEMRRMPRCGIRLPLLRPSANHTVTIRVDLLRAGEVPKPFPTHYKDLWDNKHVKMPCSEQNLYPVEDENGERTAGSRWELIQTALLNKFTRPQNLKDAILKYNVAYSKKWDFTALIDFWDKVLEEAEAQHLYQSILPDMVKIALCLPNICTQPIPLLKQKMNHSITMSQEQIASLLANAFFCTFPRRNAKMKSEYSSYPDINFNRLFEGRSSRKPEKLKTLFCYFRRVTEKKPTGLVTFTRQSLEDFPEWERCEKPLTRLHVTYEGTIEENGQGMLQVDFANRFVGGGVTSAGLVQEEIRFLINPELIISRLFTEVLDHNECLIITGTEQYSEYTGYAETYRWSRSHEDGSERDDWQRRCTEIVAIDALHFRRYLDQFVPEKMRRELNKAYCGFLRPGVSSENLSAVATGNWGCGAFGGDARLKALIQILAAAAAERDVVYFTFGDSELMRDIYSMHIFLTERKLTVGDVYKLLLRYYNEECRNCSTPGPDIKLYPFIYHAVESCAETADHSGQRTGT

Row | Compound | IC50 [nM]
1 | C[C@H](N)C(=O)N1C2CCC1CN(c1cc(S(=O)(=O)NC3(C#N)CC3)cc3c(-c4nnc(C(F)F)s4)nn(C)c13)C2 [Compound 73] | < 100
2 | CC(C)C(=O)N1CC2(C1)CN(c1cc(S(=O)(=O)NC3(C#N)CC3)cc3c(-c4nnc(C(F)F)s4)nn(C)c13)C2 [Compound 77] | < 100
3 | C[C@H](N)C(=O)N1C2C=C(c3cc(S(=O)(=O)NC4(C#N)CC4)cc4c(-c5nnc(C(F)F)s5)nn(C)c34)CC1CC2 (stereo partly drawn) [Compound 79] | < 100
4 | C[C@H](O)C(=O)N1C2C=C(c3cc(S(=O)(=O)NC4(C#N)CC4)cc4c(-c5nnc(C(F)F)s5)nn(C)c34)CC1CC2 (stereo partly drawn) [Compound 80] | < 100
5 | C[C@H](N)C(=O)N1CC=C(c2cc(S(=O)(=O)NC3(C#N)CC3)cc3c(-c4nnc(C(F)F)s4)nn(C)c23)CC1 [Compound 81] | < 100
6 | CC(C)C(=O)N1CCN(c2cc(S(=O)(=O)NC3(C)CC3)cc3c(-c4nnc(C(F)F)s4)nn(C)c23)C[C@@H]1C [Compound 82] | < 100
7 | CC(C)C(=O)N1C2C=C(c3cc(S(=O)(=O)NC4(C#N)CC4)cc4c(-c5nnc(C(F)F)s5)nn(C)c34)CC1CCC2 (stereo not drawn) [Compound 83] | < 100
8 | CC(C)C(=O)N1C2CCCC1CN(c1cc(S(=O)(=O)NC3(C#N)CC3)cc3c(-c4nnc(C(F)F)s4)nn(C)c13)C2 [Compound 84] | < 100
9 | CCn1nc(-c2nnc(C(F)F)s2)c2cc(S(=O)(=O)NC3(C#N)CC3)cc(N3CC4CCC(C3)N4C(=O)C(C)C)c21 [Compound 93] | < 100
10 | CCn1nc(-c2nnc(C(F)F)s2)c2cc(S(=O)(=O)NC3(C#N)CC3)cc(N3C4CCC3CN(C(=O)C(C)C)C4)c21 [Compound 94] | < 100
11 | COc1ccc(CN(C2(C#N)CC2)S(=O)(=O)c2cc(N3CC4CCC(C3)N4C(=O)C(C)C)c3c(c2)c(-c2nnc(C(F)F)s2)nn3CCO)cc1 [Compound 96] | 100 to 1000
12 | C[C@H](N)C(=O)N1CCC(c2cc(S(=O)(=O)NC3(C#N)CC3)cc3c(-c4nnc(C(F)F)s4)nn(C)c23)CC1 [Compound 98] | < 100
13 | CC(C)C(=O)N1CC2CCC(C1)N2c1cc(S(=O)(=O)NC2(C#N)CC2)cc2c(-c3nnc(C(F)F)s3)nn(C)c12 [Compound 101] | < 100
14 | CC(C)C(=O)N1C2CCC1CN(c1cc(S(=O)(=O)NC3(C#N)CC3)cc3c(-c4nnc(C(F)F)s4)nn(C)c13)C2 [Compound 102] | < 100
15 | CCn1nc(-c2nnc(C(F)F)s2)c2cc(S(=O)(=O)NC3(C#N)CC3)cc(N3CCN(C(=O)C(C)C)[C@H](C)C3)c21 [Compound 103] | < 100
16 | CC(C)C(=O)N1CCN(c2cc(S(=O)(=O)NC3(C#N)CC3)cc3c(-c4nnc(C(F)F)s4)nn(CC(F)(F)F)c23)C[C@@H]1C [Compound 108] | < 100
17 | CC(C)C(=O)N1CCN(c2cc(S(=O)(=O)NC3(C#N)CC3)cc3c(-c4nnc(C(F)F)s4)nn(CC(F)(F)F)c23)C[C@H]1C [Compound 109] | < 100
18 | C[C@H](O)C(=O)N1CCN(c2cc(S(=O)(=O)NC3(C#N)CC3)cc3c(-c4nnc(C(F)F)s4)nn(CC(F)(F)F)c23)CC1 [Compound 110] | < 100

Row | Compound | IC50 [nM]
19 | C[C@H](N)C(=O)N1CCN(c2cc(S(=O)(=O)NC3(C#N)CC3)cc3c(-c4nnc(C(F)F)s4)nn(CC(F)(F)F)c23)CC1 [Compound 111] | < 100
20 | CC(C)C(=O)N1CCN(c2cc(S(=O)(=O)NC3(C#N)CC3)cc3c(-c4nnc(C(F)F)s4)nn(CC#N)c23)C[C@H]1C [Compound 115] | < 100
21 | CC(C)C(=O)N1CCN2c3cc(S(=O)(=O)NC4(C#N)CC4)cc4c(-c5nnc(C(F)F)s5)nn(c34)CC2C1 (stereo not drawn) [Compound 117] | < 100
22 | CC(C)C(=O)N1C2C=C(c3cc(S(=O)(=O)NC4(C#N)CC4)cc4c(-c5nnc(C(F)F)s5)nn(C)c34)CC1CC2 (stereo not drawn) [Compound 120] | < 100
23 | Cn1nc(-c2nnc(C(F)F)s2)c2cc(S(=O)(=O)NC3(C#N)CC3)cc(C3CC4CCC(C3)N4)c21 (stereo not drawn) [Compound 121] | < 100
24 | CC(C)C(=O)N1C2CCC1CN(c1cc(S(=O)(=O)NC3(C#N)CC3)cc3c(-c4nnc(C(F)F)s4)nn(CC#N)c13)C2 [Compound 122] | < 100
25 | CC(C)C(=O)N1C2CCC1CN(c1cc(S(=O)(=O)NC3(C#N)CC3)cc3c(-c4nnc(C(F)F)s4)cn(C)c13)C2 [Compound 123] | < 100
26 | C[C@H](N)C(=O)N1C2CCC1CC(c1cc(S(=O)(=O)NC3(C#N)CC3)cc3c(-c4nnc(C(F)F)s4)nn(C)c13)C2 (stereo partly drawn) [Compound 128] | < 100
27 | CC(C)C(=O)N1CCN(c2cc(S(=O)(=O)NC(C)(C)C)cc3c(-c4nnc(C(F)F)s4)nn(C)c23)CC1 [Compound 131] | < 100
28 | CN(C)C(=O)c1ccc(-c2cc(S(=O)(=O)NC3(C#N)CC3)cc3c(-c4nnc(C(F)F)s4)nn(C)c23)cc1 [Compound 132] | < 100
29 | N#CC1(NS(=O)(=O)c2cc(N3CC4(CCOCC4)C3)c3c(c2)c(-c2nnc(C(F)F)s2)nn3CC(F)(F)F)CC1 [Compound 133] | < 100
30 | CC(C)C(=O)N1CC=C(c2cc(S(=O)(=O)NC3(C#N)CC3)cc3c(-c4nnc(C(F)F)s4)nn(C[C@@H](O)CO)c23)CC1 [Compound 136] | < 100
31 | Cn1nc(-c2nnc(C(F)F)s2)c2cc(S(=O)(=O)NC3(C#N)CC3)cc(C3=CCC(C(=O)N4CCCC4)CC3)c21 (stereo not drawn) [Compound 137] | < 100
32 | Cn1nc(-c2nnc(C(F)F)s2)c2cc(S(=O)(=O)NC3(C#N)CC3)cc(N3CCC(N4CCCC4=O)CC3)c21 [Compound 139] | < 100
33 | Cn1nc(-c2nnc(C(F)F)s2)c2cc(S(=O)(=O)NC3(C#N)CC3)cc(C3CCC(C(=O)N4CCCC4)CC3)c21 (stereo not drawn) [Compound 140] | < 100
34 | CC(C)S(=O)(=O)N1CC=C(c2cc(S(=O)(=O)NC3(C#N)CC3)cc3c(-c4nnc(C(F)F)s4)nn(C)c23)CC1 [Compound 141] | < 100
35 | Cn1nc(-c2nnc(C(F)F)s2)c2cc(S(=O)(=O)NC3(C#N)CC3)cc(N3CCN(C(=O)C4CCCC4)CC3)c21 [Compound 142] | < 100
36 | Cn1nc(-c2nnc(C(F)F)s2)c2cc(S(=O)(=O)NC3(C#N)CC3)cc(N3CCN(C(=O)C4(C)CCC4)CC3)c21 [Compound 143] | < 100

Continued, values first:

Row | IC50 [nM] | Compound
37 | < 100 | C[C@H](O)C(=O)N1C2CCC1CN(c1cc(S(=O)(=O)NC3(C#N)CC3)cc3c(-c4nnc(C(F)F)s4)nn(C)c13)C2 [Compound 72]
38 | < 100 | CN1CCC(C(=O)N2C3CCC2CN(c2cc(S(=O)(=O)NC4(C#N)CC4)cc4c(-c5nnc(C(F)F)s5)nn(C)c24)C3)C1 (stereo not drawn) [Compound 74]
39 | < 100 | Cn1nc(-c2nnc(C(F)F)s2)c2cc(S(=O)(=O)NC3(C#N)CC3)cc(N3CC4CCC(C3)N4C(=O)C3CCCC3)c21 [Compound 75]
40 | < 100 | Cn1nc(-c2nnc(C(F)F)s2)c2cc(S(=O)(=O)NC3(C#N)CC3)cc(N3CCC(C(C)(C)O)CC3)c21 [Compound 76]
41 | < 100 | CC(C)C(=O)N1C2C=C(c3cc(S(=O)(=O)NC4(C#N)CC4)cc4c(-c5nnc(C(F)F)s5)nn(C)c34)CC1COC2 (stereo not drawn) [Compound 85]
42 | < 100 | CC(C)C(=O)N1C2COCC1CN(c1cc(S(=O)(=O)NC3(C#N)CC3)cc3c(-c4nnc(C(F)F)s4)nn(C)c13)C2 [Compound 86]
43 | < 100 | Cn1nc(-c2nnc(C(F)F)s2)c2cc(S(=O)(=O)NC3(C#N)CC3)cc(N3CCC(C(=O)N4CCCC4)CC3)c21 [Compound 89]
44 | < 100 | CN(C)C(=O)C1CCN(c2cc(S(=O)(=O)NC3(C#N)CC3)cc3c(-c4nnc(C(F)F)s4)nn(C)c23)CC1 [Compound 90]
45 | < 100 | CCn1nc(-c2nnc(C(F)F)s2)c2cc(S(=O)(=O)NC3(C)CC3)cc(N3CCN(C(=O)C(C)C)[C@@H](C)C3)c21 [Compound 92]
46 | < 100 | CC(C)C(=O)N1C2CCC1CN(c1cc(S(=O)(=O)NC3(C#N)CC3)cc3c(-c4nnc(C(F)F)s4)nn(CC(F)(F)F)c13)C2 [Compound 95]
47 | < 100 | COCCn1nc2c(N3CC4CCC(C3)N4C(=O)C(C)C)cc(S(=O)(=O)NC3(C#N)CC3)cc2c1-c1nnc(C(F)F)s1 [Compound 99]
48 | < 100 | CC(C)C(=O)N1[C@H](C)CN(c2cc(S(=O)(=O)NC3(C#N)CC3)cc3c(-c4nnc(C(F)F)s4)nn(CC(F)(F)F)c23)C[C@@H]1C [Compound 104]
49 | < 100 | CC(C)(O)C1CCN(c2cc(S(=O)(=O)NC3(C#N)CC3)cc3c(-c4nnc(C(F)F)s4)nn(CC(F)(F)F)c23)CC1 [Compound 105]
50 | < 100 | Cn1nc(-c2nnc(C(F)F)s2)c2cc(S(=O)(=O)NC3(C#N)CC3)cc(N3CC4(CCOCC4)C3)c21 [Compound 106]
51 | < 100 | CC(C)C(=O)N1CC=C(c2cc(S(=O)(=O)NC3(C#N)CC3)cc3c(-c4nnc(C(F)F)s4)nn(CC(F)(F)F)c23)CC1 [Compound 107]
52 | < 100 | Cn1nc(-c2nnc(C(F)F)s2)c2cc(S(=O)(=O)NC3(C#N)CC3)cc(N3CC4CCC(C3)C4C(=O)N3CCCC3)c21 (stereo not drawn) [Compound 113]
53 | < 100 | C[C@H](O)C(=O)N1CCC(c2cc(S(=O)(=O)NC3(C#N)CC3)cc3c(-c4nnc(C(F)F)s4)nn(C)c23)CC1 [Compound 114]
54 | < 100 | CC(C)C(=O)N1CCC(c2cc(S(=O)(=O)NC3(C#N)CC3)cc3c(-c4nnc(C(F)F)s4)nn(C)c23)CC1 [Compound 116]
55 | < 100 | N#CC1(NS(=O)(=O)c2cc(C3=CC4CCC(C3)N4C(=O)C3CCCC3)c3c(c2)c(-c2nnc(C(F)F)s2)nn3CC(F)(F)F)CC1 (stereo not drawn) [Compound 119]
56 | < 100 | CC(C)C(=O)N1C2CCC1CC(c1cc(S(=O)(=O)NC3(C#N)CC3)cc3c(-c4nnc(C(F)F)s4)nn(C)c13)C2 (stereo not drawn) [Compound 127]
57 | 100 to 1000 | Cn1nc(-c2nnc(C(F)F)s2)c2cc(S(=O)(=O)NC3(C#N)CC3)cc(N3CC4CCC(C3)C4C(C)(C)O)c21 (stereo not drawn) [Compound 130]
58 | < 100 | Cn1nc(-c2nnc(C(F)F)s2)c2cc(S(=O)(=O)NC3(C#N)CC3)cc(N3CCC(N4CCCC4)CC3)c21 [Compound 134]
59 | < 100 | Cn1nc(-c2nnc(C(F)F)s2)c2cc(S(=O)(=O)NC3(C#N)CC3)cc(-c3ccc(C(=O)N4CCCC4)cc3)c21 [Compound 135]
60 | < 100 | Cn1nc(-c2nnc(C(F)F)s2)c2cc(S(=O)(=O)NC3(C#N)CC3)cc(N3CCN(C(=O)C4CCC4)CC3)c21 [Compound 144]
